Results reported in ChEMBL document CHEMBL3885861, “Open TG-GATES”.

Species on record: Rattus norvegicus
Assay: Open TG-GATES - Regimen: Daily Repeat
Assay type: toxicity, organism-based, Sprague-Dawley
Parameters: regimen Daily Repeat, gender Male, age 6 weeks
Details: in vivo, po, 100 mg/kg, route gavage, dose level Middle; for APTT / Bas / Eos / Fbg / Hb / Ht / Lym / MCH / MCHC / MCV / Mono / Neu / PT / Plat / RBC / Ret / WBC: tissue Blood; for KIDNEY_L / KIDNEY_R / KIDNEY_TOTAL: tissue Kidney; for LIVER: tissue Liver; for A/G / ALP / ALT / AST / BUN / CRE / Ca / Cl / DBIL / GLC / IP / K / LDH / Na / PL / RALB / TBIL / TC / TG / TP / gamma-GTP: tissue Plasma

## CCc1oc2ccccc2c1C(=O)c1cc(I)c(O)c(I)c1 [BENZIODARONE]
72 h, time 3 day
  TERMINAL_BW: 247.4 g
  APTT: 17.8 s
  Bas: 0%
  Eos: 0.8%
  Fbg: 228.6 mg/dL
  Hb: 13.9 g/dL
  Ht: 41.6%
  Lym: 80.4%
  MCH: 21.3 pg
  MCHC: 33.3%
  MCV: 63.9 fL
  Mono: 5.8%
  Neu: 12.4%
  PT: 11.4 s
  Plat: 123.9 x10_4/uL
  RBC: 651.4 x10_4/ul
  Ret: 6.4%
  WBC: 123 x10_2/uL
  KIDNEY_L: 1.1 g
  KIDNEY_R: 1.1 g
  KIDNEY_TOTAL: 2.3 g
  LIVER: 14.4 g
  A/G: 1.9
  ALP: 1104 IU/L
  ALT: 38.2 IU/L
  AST: 61 IU/L
  BUN: 17.6 mg/dL
  CRE: 0.5 mg/dL
  Ca: 10.8 mg/dL
  Cl: 103.4 meq/L
  DBIL: 0.038 mg/dL
  GLC: 196 mg/dL
  IP: 7.3 mg/dL
  K: 4.4 meq/L
  LDH: 112.6 IU/L
  Na: 140.6 meq/L
  PL: 148.4 mg/dL
  RALB: 3.8 g/dL
  TBIL: 0.3 mg/dL
  TC: 79 mg/dL
  TG: 66 mg/dL
  TP: 5.9 g/dL
  gamma-GTP: 2 IU/L
[…], time 7 day
  TERMINAL_BW: 273.1 g
  APTT: 17.9 s
  Bas: 0%
  Eos: 1.2%
  Fbg: 241 mg/dL
  Hb: 14.1 g/dL
  Ht: 41.6%
  Lym: 78.6%
  MCH: 21.1 pg
  MCHC: 33.9%
  MCV: 62.5 fL
  Mono: 7.2%
  Neu: 13%
  PT: 11.7 s
  Plat: 139.6 x10_4/uL
  RBC: 666.6 x10_4/ul
  Ret: 3.8%
  WBC: 95.7 x10_2/uL
  KIDNEY_L: 1.2 g
  KIDNEY_R: 1.2 g
  KIDNEY_TOTAL: 2.4 g
  LIVER: 15.6 g
  A/G: 1.7
  ALP: 1041.8 IU/L
  ALT: 35 IU/L
  AST: 65.2 IU/L
  BUN: 20.6 mg/dL
  CRE: 0.6 mg/dL
  Ca: 11 mg/dL
  Cl: 103 meq/L
  DBIL: 0.03 mg/dL
  GLC: 184 mg/dL
  IP: 7.8 mg/dL
  K: 4.5 meq/L
  LDH: 119.8 IU/L
  Na: 140.6 meq/L
  PL: 153.4 mg/dL
  RALB: 3.8 g/dL
  TBIL: 0.3 mg/dL
  TC: 78.8 mg/dL
  TG: 87.2 mg/dL
  TP: 6.1 g/dL
  gamma-GTP: 1.6 IU/L
[…], time 14 day
  TERMINAL_BW: 322 g
  APTT: 18.4 s
  Bas: 0%
  Eos: 0.8%
  Fbg: 229.4 mg/dL
  Hb: 14.3 g/dL
  Ht: 42.5%
  Lym: 85%
  MCH: 20.4 pg
  MCHC: 33.6%
  MCV: 60.7 fL
  Mono: 5.2%
  Neu: 9.2%
  PT: 11.8 s
  Plat: 122.8 x10_4/uL
  RBC: 700.6 x10_4/ul
  Ret: 2.5%
  WBC: 113.1 x10_2/uL
  KIDNEY_L: 1.2 g
  KIDNEY_R: 1.3 g
  KIDNEY_TOTAL: 2.5 g
  LIVER: 16.9 g
  A/G: 2
  ALP: 712.4 IU/L
  ALT: 34.2 IU/L
  AST: 61.6 IU/L
  BUN: 20.8 mg/dL
  CRE: 0.6 mg/dL
  Ca: 10.6 mg/dL
  Cl: 105.2 meq/L
  DBIL: 0.04 mg/dL
  GLC: 199 mg/dL
  IP: 6.9 mg/dL
  K: 4.4 meq/L
  LDH: 105 IU/L
  Na: 141 meq/L
  PL: 139.6 mg/dL
  RALB: 4 g/dL
  TBIL: 0.2 mg/dL
  TC: 73.8 mg/dL
  TG: 67.6 mg/dL
  TP: 6 g/dL
  gamma-GTP: 1.2 IU/L
[…], time 28 day
  TERMINAL_BW: 412 g
  APTT: 18.9 s
  Bas: 0%
  Eos: 1.4%
  Fbg: 225 mg/dL
  Hb: 15.2 g/dL
  Ht: 45.2%
  Lym: 81.8%
  MCH: 19.5 pg
  MCHC: 33.7%
  MCV: 58 fL
  Mono: 6%
  Neu: 11.2%
  PT: 11.8 s
  Plat: 114.5 x10_4/uL
  RBC: 778.6 x10_4/ul
  Ret: 3.4%
  WBC: 123.7 x10_2/uL
  KIDNEY_L: 1.4 g
  KIDNEY_R: 1.5 g
  KIDNEY_TOTAL: 2.9 g
  LIVER: 21.8 g
  A/G: 1.7
  ALP: 685.6 IU/L
  ALT: 37 IU/L
  AST: 59.2 IU/L
  BUN: 22 mg/dL
  CRE: 0.7 mg/dL
  Ca: 10.7 mg/dL
  Cl: 103.6 meq/L
  DBIL: 0.012 mg/dL
  GLC: 195.4 mg/dL
  IP: 6.4 mg/dL
  K: 4.4 meq/L
  LDH: 96.6 IU/L
  Na: 140.6 meq/L
  PL: 159.6 mg/dL
  RALB: 4.1 g/dL
  TBIL: 0.3 mg/dL
  TC: 86.4 mg/dL
  TG: 78.6 mg/dL
  TP: 6.5 g/dL
  gamma-GTP: 1.2 IU/L
